Source: US20260274856A1, “COVALENT CEREBLON LIGANDS” (C4 THERAPEUTICS, INC., priority 2023, published 2026)
Read-outs that look alike come from different tables or passages of the source.

Key:
GSPT1 = GSPT1 (Homo sapiens, UniProt P15170+Q96SW2); assay: GSPT1 HiBiT Degradation Assay in 293T.114 cells; conditions: for HIBIT-Degradation 293T.114 GSPT1 24 hours IP nM / DC50: 293T.114 cells, 24 hours; for HIBIT-Degradation 293T.114 GSPT1 24 hours IP nM: inflection point of the dose-response curve; for DC50: read-out: HIBIT-Degradation 293T.114 GSPT1 24 hours DC50 nM; for Emax: read-out: HIBIT-Degradation 293T.114 GSPT1 24 hours Emax
Sequence of GSPT1 (Q96SW2 whole entry): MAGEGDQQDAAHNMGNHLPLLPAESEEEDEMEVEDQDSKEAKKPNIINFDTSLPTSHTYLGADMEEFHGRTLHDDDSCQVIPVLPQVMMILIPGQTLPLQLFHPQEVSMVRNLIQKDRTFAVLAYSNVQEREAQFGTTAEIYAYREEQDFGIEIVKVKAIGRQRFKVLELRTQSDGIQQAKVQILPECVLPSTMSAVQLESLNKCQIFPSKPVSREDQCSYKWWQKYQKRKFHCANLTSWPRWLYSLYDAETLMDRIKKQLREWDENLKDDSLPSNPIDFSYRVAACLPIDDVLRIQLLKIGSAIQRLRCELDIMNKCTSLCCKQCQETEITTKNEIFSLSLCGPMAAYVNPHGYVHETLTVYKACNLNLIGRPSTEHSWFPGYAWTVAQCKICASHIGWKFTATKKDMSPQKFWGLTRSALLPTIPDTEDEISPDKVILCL
Sequence of GSPT1 (Q16531 2-1140, further chain): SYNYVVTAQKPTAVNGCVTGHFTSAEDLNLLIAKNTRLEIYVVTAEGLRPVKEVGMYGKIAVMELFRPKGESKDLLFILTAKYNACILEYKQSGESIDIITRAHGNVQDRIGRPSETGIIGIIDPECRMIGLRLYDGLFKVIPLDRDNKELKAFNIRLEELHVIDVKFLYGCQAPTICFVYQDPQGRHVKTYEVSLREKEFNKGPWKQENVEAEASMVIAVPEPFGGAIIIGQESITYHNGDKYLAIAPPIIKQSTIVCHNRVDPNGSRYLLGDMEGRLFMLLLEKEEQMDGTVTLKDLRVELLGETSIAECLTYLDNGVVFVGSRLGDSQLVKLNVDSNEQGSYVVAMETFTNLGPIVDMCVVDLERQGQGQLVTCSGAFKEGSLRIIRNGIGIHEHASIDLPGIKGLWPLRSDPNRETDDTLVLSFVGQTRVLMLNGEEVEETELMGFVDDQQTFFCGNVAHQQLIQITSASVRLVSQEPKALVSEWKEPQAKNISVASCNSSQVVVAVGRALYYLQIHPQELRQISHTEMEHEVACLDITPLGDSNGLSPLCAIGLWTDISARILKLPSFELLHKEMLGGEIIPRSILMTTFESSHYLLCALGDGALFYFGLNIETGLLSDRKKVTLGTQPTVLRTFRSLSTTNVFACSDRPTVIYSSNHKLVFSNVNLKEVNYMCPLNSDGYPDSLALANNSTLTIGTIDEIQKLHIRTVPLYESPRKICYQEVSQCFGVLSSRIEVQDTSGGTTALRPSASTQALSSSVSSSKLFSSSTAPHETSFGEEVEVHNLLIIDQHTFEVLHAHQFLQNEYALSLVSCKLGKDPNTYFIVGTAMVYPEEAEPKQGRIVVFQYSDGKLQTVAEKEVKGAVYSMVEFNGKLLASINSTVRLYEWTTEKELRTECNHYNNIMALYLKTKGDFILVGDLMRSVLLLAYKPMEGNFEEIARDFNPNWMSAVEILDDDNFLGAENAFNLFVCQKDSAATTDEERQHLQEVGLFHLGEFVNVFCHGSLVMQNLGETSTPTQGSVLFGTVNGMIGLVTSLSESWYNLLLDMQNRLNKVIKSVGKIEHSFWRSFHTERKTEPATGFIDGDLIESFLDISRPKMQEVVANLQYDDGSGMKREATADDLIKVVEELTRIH
Sequence of GSPT1 (P15170 whole entry): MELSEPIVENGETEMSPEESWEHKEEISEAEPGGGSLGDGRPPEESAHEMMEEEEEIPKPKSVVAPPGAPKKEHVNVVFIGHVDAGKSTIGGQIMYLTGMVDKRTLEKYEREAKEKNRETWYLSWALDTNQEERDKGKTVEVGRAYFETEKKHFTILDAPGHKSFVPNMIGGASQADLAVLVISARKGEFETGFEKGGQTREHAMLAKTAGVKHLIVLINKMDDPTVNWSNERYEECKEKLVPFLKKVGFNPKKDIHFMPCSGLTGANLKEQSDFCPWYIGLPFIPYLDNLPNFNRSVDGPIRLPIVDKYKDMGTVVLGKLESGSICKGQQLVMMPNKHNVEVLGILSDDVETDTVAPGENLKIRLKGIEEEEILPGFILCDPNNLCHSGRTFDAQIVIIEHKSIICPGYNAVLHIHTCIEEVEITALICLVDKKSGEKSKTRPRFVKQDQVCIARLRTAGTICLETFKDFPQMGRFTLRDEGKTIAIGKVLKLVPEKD
Procedure: Upon cell lysis and addition of the complementing LgBiT polypeptide and its substrate, the HiBiT polypeptide on GSPT1 allows reconstitution of an enzyme that activates its substrate to produce a luminescent signal that is directly proportional to the amount of HiBiT-tagged GSPT1. […] Cell culture flasks and 384-well microplates were acquired from VWR (Radnor, PA, USA).
Cellular GSPT1 protein level was determined based on quantification of luminescent signal using the Nano-Glo® HiBiT Lytic Assay kit (Promega). Following the 24 hr treatment time, Nano-Glo® HiBiT Lytic Assay reagents were added to the cells per the manufacturer's instructions by adding 30 µl of reagent per well, and the luminescence signal was acquired on the PHERAstar plate reader (BMG Labtech, Ortenberg, Germany). Cells treated with DMS0 only (no test compound treatment) were used as the negative control (N). Media only (no cells added) withNano-Glo reagent additionwasused as the background orpositive control (P). The percent response of compound treated samples were calculated by subtracting out the 5 background signal (P) and normalizing to the DMS0 control (N) as follows. 0% Response=100 x (Treated Signal - Average (P))/(Average (N) - Average (P)).
Data were analyzed with a 4-parameter logistic fit to generate sigmoidal dose-response curves. DC50 values were computed as the concentrations where the fitted curves cross the 5000 response level.

[1] = tested on: A375—NRASQ^61K cells (cell line A375.11); assay: CTGlo (CellTiter-Glo 2.0) Cell Viability Assay; type: cell-based
Procedure: Compounds of the present invention were tested for their effect on the viability of A375—NRASQ^61K cells by quantification of ATP using the CellTiter-Glo® 2.0 Cell Viability Assay (Catalog No. G9243, Promega, Madison, WI, USA). This assay produces a luminescent signal in the presence of ATP, which is indicative of metabolically active cells, making the luminescence readout proportional to the number of viable cells. A375—NRASQ^61K cells, also referred to here as cell line A375.11, (harboring BRAF homozygous V600E mutation and NRAS homozygous Q61K mutation) were purchased from ATCC (Catalog No. CRL-1619IG-2, Manassas, VA, USA).
Cells were also plated to a 384-well plate with no compound treatment, to which CellTiter-Glo® reagent was added and luminescence was read right after plating to act as a baseline signal at time of plating (To).
DMSO treated cells with no CellTiter-Glo® reagent added were used as the background or positive control (P). Viability was determined by subtracting out the average background signal (P) and normalized to the average untreated signal (N) set at 100%.

[2] = 96 h, IP, read-out: CTGlo A375.11 96 hours IP
[3] = 96 hours, lowest % viability achieved
[4] = half-maximal inhibition of cell growth, table title: A375.11 96 hours, read-out: CTGlo A375.11 96 hours GI50
[5] = 96 hours, IP, read-out: CTGlo A375.11 96 hours IP

Compound	GI50 [1, 2]	Emax [1, 3]	GI50 [1, 4]	GI50 [1, 5]	further results
CCN(C)S(=O)(=O)Nc1ccc(F)c(Oc2ccc3ncn([C@H]4COC5(CCN(C(=O)CN6CCN(c7ccc(C8CCC(=O)NC8=O)cc7OS(=O)(=O)F)CC6)CC5)C4)c(=O)c3c2)c1C#N (stereo partly drawn) [drawing 1232]	–	–	–	–	HIBIT-Degradation 293T.114 GSPT1 24 hours IP nM (GSPT1): ** (<10 μM and >1 μM is **); DC50 (GSPT1): > 10000 nM; Emax (GSPT1): 60 to 95%
CCN(C)S(=O)(=O)Nc1ccc(F)c(Oc2ccc3ncn([C@@H]4COC5(CCN(C(=O)CN6CCC(c7ccc(C8CCC(=O)NC8=O)cc7OS(=O)(=O)F)CC6)CC5)C4)c(=O)c3c2)c1C#N (stereo partly drawn) [drawing 1231]	–	–	–	–	HIBIT-Degradation 293T.114 GSPT1 24 hours IP nM (GSPT1): ** (<10 μM and >1 μM is **); DC50 (GSPT1): > 10000 nM; Emax (GSPT1): < 60%
CCN(C)S(=O)(=O)Nc1ccc(F)c(Oc2ccc3ncn([C@@H]4COC5(CCN(C(=O)CN6CCN(c7ccc(N8CCC(=O)NC8=O)cc7OS(=O)(=O)F)CC6)CC5)C4)c(=O)c3c2)c1C#N [drawing 1185]	> 10 µM	60 to 95%	> 10 µM	–	–
CCN(C)S(=O)(=O)Nc1ccc(F)c(Oc2ccc3ncn([C@H]4COC5(CCN(C(=O)CN6CCC(c7ccc(N8CCC(=O)NC8=O)cc7OS(C)(=O)=O)CC6)CC5)C4)c(=O)c3c2)c1C#N [drawing 1174]	–	< 60%	1 to 10 µM	1 to 10 µM	–
CCN(C)S(=O)(=O)Nc1ccc(F)c(Oc2ccc3ncn([C@@H]4COC5(CCN(C(=O)CN6CCC(c7ccc(OC8CCC(=O)NC8=O)cc7OS(=O)(=O)F)CC6)CC5)C4)c(=O)c3c2)c1C#N (stereo partly drawn) [drawing 1186]	> 10 µM	60 to 95%	> 10 µM	–	–
CCN(C)S(=O)(=O)Nc1ccc(F)c(Oc2ccc3ncn([C@@H]4COC5(CCN(C(=O)CN6CCC(c7ccc(NC8CCC(=O)NC8=O)cc7OS(C)(=O)=O)CC6)CC5)C4)c(=O)c3c2)c1C#N (stereo partly drawn) [drawing 1188]	–	> 95%	> 10 µM	> 10 µM	–
CCN(C)S(=O)(=O)Nc1ccc(F)c(Oc2ccc3ncn([C@H]4COC5(CCN(C(=O)CN6CCC(c7ccc(OC8CCC(=O)NC8=O)cc7OS(C)(=O)=O)CC6)CC5)C4)c(=O)c3c2)c1C#N (stereo partly drawn) [drawing 1184]	–	60 to 95%	> 10 µM	> 10 µM	–
CCN(C)S(=O)(=O)Nc1ccc(F)c(Oc2ccc3ncn([C@H]4COC5(CCN(C(=O)CN6CCN(c7ccc(C8CCC(=O)NC8=O)cc7OS(=O)(=O)F)CC6)CC5)C4)c(=O)c3c2)c1C#N (stereo partly drawn) [drawing 1183]	–	–	> 10 µM	–	CTGlo A375.11 96 hours IP nM ([1]; 96 hours, IP): ** (<10 μM and >1 μM is **); CTGlo A375.11 96 hours Emax [1, 3]: ** (<95% and >60% is **)
CCN(C)S(=O)(=O)Nc1ccc(F)c(Oc2ccc3ncn([C@H]4COC5(CCN(C(=O)CN6CCC(c7ccc(OC8CCC(=O)NC8=O)cc7OS(=O)(=O)F)CC6)CC5)C4)c(=O)c3c2)c1C#N (stereo partly drawn) [drawing 1179]	1 to 10 µM	60 to 95%	> 10 µM	–	–
CCN(C)S(=O)(=O)Nc1ccc(F)c(Oc2ccc3ncn([C@@H]4COC5(CCN(C(=O)CN6CCC(c7ccc(OC8CCC(=O)NC8=O)cc7S(=O)(=O)F)CC6)CC5)C4)c(=O)c3c2)c1C#N (stereo partly drawn) [drawing 1175]	> 10 µM	< 60%	> 10 µM	–	–
